Results as given in patent US9925231B2, “Formulations of guanylate cyclase C agonists and methods of use” (SYNERGY PHARMACEUTICALS, INC., priority 2010, dated 2018).
Where a SMILES comes first, the peptide text is derived from it. Bridges are numbered along the chain shown (N, C = ends).

Columns and labels:
[1] = test system: patients with chronic idiopathic constipation (CIC); assay type: in vivo
Procedure: (§1) A randomized, double-blind, placebo-controlled, 14-day repeat oral, dose ranging study was conducted in patients with chronic idiopathic constipation (CIC). […] One secondary objective was to assess the pharmacokinetic profile of SP-304 in plasma.
(§2) Subjects diagnosed with CIC were screened for the anticipated 4 cohorts to yield 80 randomized subjects for enrollment. […] Subjects who continued to meet all the entry criteria and complete the pre-treatment bowel movement (BM) diary received, in a double-blind, randomized fashion, SP-304 or matching placebo. The entry criteria included (1) meeting modified ROME III criteria for chronic constipation (CC); (2) no significant finding in colonoscopy within past 5 years; (3) good health as determined by physical examination, medical history, vital signs, ECG, clinical chemistry, hematology, urinalysis, drug screen and serology assessments; and (4) during 14-day pre-treatment period, subjects reporting <6 SBM and <3 CSBM in each pre-treatment week.
(§3) The majority of adverse events were mild/moderate and transient in nature. […] The table below is a GI-related adverse event (AE) summary.

[2] = test system: patients with chronic idiopathic constipation (CIC); test: Clinical study in CIC patients: pharmacodynamic effects (efficacy), bowel habits; assay type: in vivo, Humans; settings: for time to first bowel movement: after daily dose
Procedure: as §1, §2

[3] = Excipient compatibility: percent purity (HPLC) of SP-304 in binary mixtures stored at 40 C/75RH; assay type: physicochemical
From the text: For solid excipients the binary mixtures were comprised of 9.1% or 50% excipient. Glass vials were stored at 40 C/75RH open or closed.

[4] = Clinical study in CIC patients: pharmacokinetic profile of SP-304 in plasma; assay type: in vivo, Humans; settings: oral, 14 days, assay sensitivity ≥10 ng/mL
Procedure: as §1, §2, §3

[5] = 14-day repeat oral dosing, CIC patients
[6] = daily treatment 14 days, CIC patients

Q: With CC(C)C[C@H](NC(=O)[C@@H]1CSSC[C@@H]2NC(=O)[C@H](CC(C)C)NC(=O)[C@H](CCC(=O)O)NC(=O)[C@@H](NC(=O)[C@H](CCC(=O)O)NC(=O)[C@H](CC(=O)O)NC(=O)[C@@H](N)CC(N)=O)CSSC[C@H](NC(=O)[C@H](C)NC(=O)[C@H](C(C)C)NC(=O)[C@H](CC(N)=O)NC(=O)[C@H](C(C)C)NC2=O)C(=O)N[C@@H]([C@@H](C)O)C(=O)NCC(=O)N1)C(=O)O [SP-304, Asn^1-Asp^2-Glu^3-Cys^4-Glu^5-Leu^6-Cys^7-Val^8-Asn^9-Val^10-Ala^11-Cys^12-Thr^13-Gly^14-Cys^15-Leu^16] (H-NDECELCVNVACTGCL-OH; disulfide 4-12, 7-15) as the molecule, how does the deaths [1, 5] read?
A: no deaths reported

Q: What about the “serious adverse events (SAE)” value [1, 5] of the same molecule?
A: No serious adverse events

Q: What about the diarrhea ([1]; human, in vivo) of the same molecule?
A: no diarrhea reported

Q: What about the “subjects reporting GI-related adverse events considered as related to treatment” value ([1]; human, in vivo) of the same molecule?
A: 5.2%

Q: And the “subjects reporting adverse events considered as related to the treatment” value ([1]; human, in vivo)?
A: 17.2%

Q: What about the stool consistency ([2]; Bristol Stool Form Scale, daily treatment 14 days) of the same molecule?
A: improved

Q: What about the “time to first bowel movement” value ([2]; CIC patients) of the same molecule?
A: decreased

Q: And the “time to first bowel movement” value ([2]; CIC patients, listed as Plecanatide)?
A: reduced

Q: And the abdominal discomfort [2, 6]?
A: reduced

Q: What about the “stool frequency (CSBM)” value [2, 6] of the same molecule?
A: increased

Q: And the “stool frequency (SBM)” value [2, 6]?
A: increased

Q: And the straining [2, 6]?
A: reduced

Q: What about the “percent purity of SP-304 (HPLC), Closed 1 M” value ([3]; closed glass vial, 1 month) of the same molecule?
A: 91.4%

Q: And the “percent purity of SP-304 (HPLC), Closed 2 M” value ([3]; closed glass vial, 2 months)?
A: 88.2%

Q: And the “percent purity of SP-304 (HPLC), Open 0.5 M” value ([3]; open glass vial, 0.5 month)?
A: 93.7%

Q: What about the “percent purity of SP-304 (HPLC), Open 1 M” value ([3]; open glass vial, 1 month) of the same molecule?
A: 91.2%

Q: What about the “percent purity of SP-304 (HPLC), Open 2 M” value ([3]; open glass vial, 2 months) of the same molecule?
A: 88.2%

Q: And the “percent purity of SP-304 (HPLC), Open 3 M” value ([3]; open glass vial, 3 months)?
A: 84.8%

Q: And the “systemic absorption of plecanatide” value [4]?
A: no detectable systemic absorption
